Data on 1 compound can be found in publication PMC8525588, “Direct targeting of wild-type glucocerebrosidase by antipsychotic quetiapine improves pathogenic phenotypes in Parkinson’s disease models” (JCI Insight, 2021).

This assay concerns the target T1, β-glucocerebrosidase (GCase) (Homo sapiens, UniProt P04062).
T1 construct: gene GBA1
T1 sequence (P04062 40-536): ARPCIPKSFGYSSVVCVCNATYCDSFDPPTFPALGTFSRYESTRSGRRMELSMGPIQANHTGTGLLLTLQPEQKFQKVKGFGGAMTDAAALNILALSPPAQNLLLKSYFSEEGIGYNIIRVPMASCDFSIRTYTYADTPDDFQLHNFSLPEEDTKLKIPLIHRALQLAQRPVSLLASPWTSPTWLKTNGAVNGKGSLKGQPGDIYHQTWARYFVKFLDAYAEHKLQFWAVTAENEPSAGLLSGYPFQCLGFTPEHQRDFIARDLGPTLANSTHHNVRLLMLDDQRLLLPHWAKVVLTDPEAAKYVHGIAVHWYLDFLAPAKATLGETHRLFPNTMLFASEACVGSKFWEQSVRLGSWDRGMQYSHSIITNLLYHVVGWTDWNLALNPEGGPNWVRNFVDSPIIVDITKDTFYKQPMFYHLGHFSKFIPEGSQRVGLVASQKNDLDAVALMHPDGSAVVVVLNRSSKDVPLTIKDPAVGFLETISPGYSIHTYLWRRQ
The assay can be described thus: biochemical.

Usually Kd stands for a measure of binding affinity in units of concentration. Regarding `OCCOCCN1CCN(C2=Nc3ccccc3Sc3ccccc32)CC1` [quetiapine], the Kd came out at 5 µM.
